# Laboratory results as given in US20260283990A1, “COMPOUNDS FOR TREATING RETT SYNDROME AND OTHER DISORDERS” (UNRAVEL BIOSCIENCES, INC., priority 2023, published 2026).
# “Also recorded” adds a separate entry of the source. Where two headings read alike, the source gives them in different places. Square brackets hold non-standard residues; d marks the D form. Peptide text beside a SMILES is read from it. αMeP = C[C@@]1(C(=O)O)CCCN1
# What was measured:
# [1] = tested on: Mecp2-null male mice; conditions: cited from earlier work; for Rett cumulative severity score, head-to-head comparison: older mice with extensive symptoms prior to treatment; for efficacy when starting treatment after the onset of symptoms: start P36
# [2] = tested on: RTT tadpole model; experiment: Drug screen in the RTT tadpole model (behavior, survival, seizures, toxicity); type: in vivo, Xenopus; conditions: seizures as readout
# Description: (§1) Briefly, Xenopus embryos at the 4-cell stage were microinjected with Cas9 protein and guide RNA complex aimed at 3 sites of the MeCP2 gene corresponding to DNA binding and the mutation locations of the most severe patient cases. Embryos could develop into free-swimming tadpoles, and no effect on viability was observed relative to controls. Tadpoles presented a spectrum of behavioral phenotypes, including seizures. qPCR analysis confirmed a range of MeCP2 KO of 5-95% of the cells, and immunostaining of tissue sections indicated mosaic and overall reduction of MeCP2 protein levels and a-tubulin acetylation (Novak et al. 2022). Based on seizure and behavioral screens in RTT tadpoles, we evaluate the tolerability and efficacy of any number of predicted compounds. The top performing drug is vorinostat, a hydroxamic acid pan-Histone Deacetylase inhibitor (HDACi), approved for cutaneous T cell lymphoma (Novak et al., 2022). […] These six scores are then summed to provide a cumulative severity score from 0-12 (Guy et al., 2001, 2007).
# RTT tadpole transcriptomes were compared against wild-type (WT) sibling transcriptomes using our proprietary BioNav™ software, which ranked the entirety of compounds from the National Institute of Health (NIH) Library of Integrated Network-Based Cellular Signatures (LINCS) database (Keenan et al., 2018) that were predicted to shift a RTT state to a healthy state. The top candidates were downselected to include only FDA-approved drugs and screened in the RTT tadpole model using behavior, survival, and seizures as an efficacy readout, together with toxicity phenotypes. […] Vorinostat was selected for more detailed evaluation in tadpoles and mouse models. […] Ciliary morphology was also normalized by drug treatment across the entire body, and vorinostat reduced Ib4+ inflammatory cells in the GI tract (Novak et al., 2022).
# [3] = tested on: microtubule; experiment: Microtubule polymerization assays; type: biochemical
# [4] = tested on: tadpole proteome; conditions: whole organism Thermal Proteome Profiling; cited from earlier work
# [5] = tested on: brain and muscle gene networks and pathways; experiment: RNAseq of brain and muscle of dosed mice analysed with BioNav / Reactome; type: in vivo, C57B/L6 mice
# Description: FIGS. 2A-2B. BioNav™ plots organized by chemical structure similarity of 40,000 compounds. Differential scores of predicted drugs mimicking vorinostat- or RVLOO2-dosed mouse brain (FIG. 2A) or femoral muscle (FIG. 2B) are plotted. Cluster of HDAC inhibitors is circled (FIG. 2B).
# FIGS. 3A-3E. […] Genes associated with network level changes in mice treated with vorinostat or RVL002 were analyzed and sorted according to Reactome.org pathways (91). RVL002 engages pathways in the brain and muscle tissues similar to those resulting from vorinostat dosing (FIG. 3A). […] RVL002 engages MeCP2 pathways in the brain and muscle tissues (FIG. 3E).
# Brain and muscle tissues from these mice were submitted to RNA sequencing (RNAseq) and analyzed on our BioNav™ generated from the network model of 40,000 compounds with transcriptomic data. […] By taking our calculated interacting gene sets we identified genes and networks unique to RVL002 (FIGS. 3A-3E). The gene expression profiles of the brains of mice treated with vorinostat is largely due to its highly brain-permeable metabolite and this profile is closely mimicked by RVL002 while RVL002 increased bioavailability and biodistribution is reflected in a proportionally more extensive number of genes whose expression levels are altered. The top 4 pathways are associated with MeCP2 despite using wild-type C57B/L6 mice (Table 2), and several other pathways associated with MeCP2 are identified, albeit with lower statistical significance (Table 3).
# [6] = Pharmacokinetic study in C57BL/6J mice (plasma and tissues); type: in vivo
# [7] = tested on: RTT models (MeCP2 deficit); conditions: cited from earlier work
# [8] = Pharmacokinetic (PK) assay of vorinostat, oral vs. IP; type: in vivo
# [9] = tested on: RTT tadpoles (MeCP2 KD); experiment: Tadpole tracking system: swimming behavior of RTT (MeCP2 KD) tadpoles; type: in vivo, Xenopus; conditions: for swimming pattern of treated RTT tadpoles: n=5 per dish
# Description: FIGS. 4A-4F. FIG. 4A) Occupation density plot from tracking tadpoles swimming and resting locations over a 10-minute recording session (n=5 per 10 ml dish, at 30 frames per seconds), where high density means the tadpoles where recorded at that XY coordinate most frequently. FIG. 4A) wild-type tadpoles (WT) normal behavior is to swim along the edge of the dish in an area termed the “outer area”, while the area within the white center circle is termed the “inner area” and is mostly dark. […] Additionally, RTT tadpoles cover less distance in the outer area, preferring to cross the inner area. FIG. 4C) example of multiple parameters derived from the tracking system, highlighting metrics corresponding to behavioral phenotypes. FIG. 4D) one such metric of epoch-based entropy which captures information about the swimming behavior over a recording session and how a group diverges from the others, in this case indicating favorable improvement in RTT tadpole symptoms treated with RVL002 (epoch=15-second). FIG. 4E) one such metric is the inner area circular swimming. Locomotor assays is commonly used in mouse model of neurological diseases, it can also assess the behavior in tadpole models. Both vorinostat and RVL002 reduced the average inner dish circular swimming behavior in KD tadpoles compared to vehicle controls.
# as §1
# (§2) Using our tadpole tracking system, we evaluated the effect of vorinostat and RVL002 on WT and RTT tadpoles swimming behavior (FIGS. 4A-4F). WT tadpoles spend most of the time swimming along the outside of the dish and only occasionally cross through the center of the dish, while RTT tadpoles swim more erratically and tend to dart through the center of the dish and stop more frequently (FIG. 4A-4B, n=5 per dish). These abnormal swimming patterns could be related to motor irregularities and seizures seen in human RTT patients. […] The entropy captures deviations in swimming behavior, including distance and area explored. […] We compared the gene expression signatures of vorinostat- and RVL002-treated tadpole RTT model animals and wild type controls. In wild type animals, 100% of genes with significant expression changes (fold change >2, p<0.05) due to vorinostat treatment were accounted for by RVL002 treatment. In RTT animals, RVL002 replicated 92.5% of gene expression changes.
# [10] = tested on: Mecp2-null male mice; experiment: Vorinostat and trofinetide in the MeCP2-null mouse model; type: in vivo; conditions: daily IP from P30
# Description: (§3) Briefly, Xenopus embryos at the 4-cell stage were microinjected with Cas9 protein and guide RNA complex aimed at 3 sites of the MeCP2 gene corresponding to DNA binding and the mutation locations of the most severe patient cases. Embryos could develop into free-swimming tadpoles, and no effect on viability was observed relative to controls. Tadpoles presented a spectrum of behavioral phenotypes, including seizures. qPCR analysis confirmed a range of MeCP2 KO of 5-95% of the cells, and immunostaining of tissue sections indicated mosaic and overall reduction of MeCP2 protein levels and a-tubulin acetylation (Novak et al. 2022). Based on seizure and behavioral screens in RTT tadpoles, we evaluate the tolerability and efficacy of any number of predicted compounds. The top performing drug is vorinostat, a hydroxamic acid pan-Histone Deacetylase inhibitor (HDACi), approved for cutaneous T cell lymphoma (Novak et al., 2022). […]
# Using trofinetide as a positive control, we evaluated the feasibility of initiating drug dosing starting at 30 days post-natal (P30), unlike the majority of RTT pre-clinical studies starting before the onset of symptoms. […] We evaluated the comparative efficacy of oral vs. IP dosing of vorinostat in MeCP2-null mice starting at 36 days post-natal (P36), well after the onset of symptoms, to better mimic clinical presentation of RTT patients.
# [11] = tested on: mecp2-acss3-2KD tadpoles; experiment: Tadpole tracking: double knockdown of MeCP2 and ACSS3 (mecp2-acss3-2KD); type: in vivo, Xenopus laevis; conditions: 50 μM every other day from 6 dpf, recorded at 15 dpf
# Description: FIGS. 6A-6C. […] Wild-type (WT), MeCP2 knockdown (mecp2-KD) and double knockdown of MeCP2 and ACSS3 (mecp2-acss3-2KD) tadpoles, were compared in the presence of absence of 50 μM RVL002 added to the swimming media every other day since 6 dpf.
# Using our tadpole tracking system, we evaluated the effect of RVL002 on WT, RTT and tadpoles deficient for both MeCP2 and ACSS3 (FIGS. 6A-6C).
# [12] = tested on: RTT tadpoles; experiment: Viability measurement in WT and RTT tadpoles; type: in vivo, Xenopus; conditions: RVL002 100 uM compared with vorinostat 50 uM, n=10 per condition
# [13] = tested on: tadpole RTT model animals and wild type controls; experiment: Gene expression signatures of vorinostat- and RVL002-treated tadpoles; type: in vivo, Xenopus
# Description: as §2
# [14] = tested on: MeCP2-/y mice; experiment: Rett cumulative severity score in MeCP2-/y mice treated with RVL002; type: in vivo; conditions: 50 mg/kg P.O. daily after onset of severe symptoms (P34), vs vehicle
# Description: (§4) FIGS. 5A-5B. Mice (KO MeCP2^−/y or WT littermates) were treated with 50 mg/kg P.O. RVL002 daily following the onset of severe symptoms at 34 days post-natal (P34).
# as §3
# Mice (MeCP2-/y or WT littermates) were treated with 50 mg/kg P.O. RVL002 daily following the onset of severe symptoms as determined by the Rett cumulative severity scoring system (Guy et al., 2001, 2007).
# [15] = tested on: MeCP2-/y mice; experiment: Optomotor assay in MeCP2-/y mice treated with RVL002; type: in vivo; conditions: 50 mg/kg P.O. daily from P34
# Description: as §4
# [16] = tested on: HDAC; experiment: HDACi activity (statement, no method)
compound,measurement,setting,value
"C[C@@]1(C(=O)N[C@@H](CCC(=O)O)C(=O)O)CCCN1C(=O)CN [Trofinetide, trofinetide] (H-Gly-[αMeP]-Glu-OH)","Rett cumulative severity score, head-to-head comparison",[1],did not improve the cumulative severity score
same,efficacy when starting treatment after the onset of symptoms,[1]; trofinetide,failed to show efficacy
same,reversal of RTT symptoms in RTT tadpole screen,[2],"showed efficacy, albeit lower than the predicted drugs"
ivermectin,microtubule polymerization,[3],mild microtubule polymerization effects
same,reversal of RTT symptoms in RTT tadpole screen,[2],stronger reversal of RTT symptoms at nontoxic concentrations
same,"α- and β-tubulins, acetyl CoA synthetase 3, ribosome protein S6 as targets",[4],"significant, direct targets"
"O=C(CCCCCCC(=O)Nc1ccccc1)NO [Vorinostat, vorinostat]",overlap of vorinostat with RVL002 in HDAC associated pathways,[5]; muscle tissues (FIG. 3D),97.3%
same,Tmax,"[6]; C57BL/6J mice, 50 mg/kg intraperitoneally, mean",0.3 h
same,"biodistribution, crossing the blood brain barrier","[6]; mouse, in vivo, 50 mg/kg",does not efficiently cross the blood brain barrier
same,AUC(0-inf),"[6]; mouse, in vivo, ip, 50 mg/kg",640 ng·h/mL
same,AUC(0-t),"[6]; mouse, in vivo, ip, 50 mg/kg",632 ng·h/mL
same,Cmax,"[6]; mouse, in vivo, ip, 50 mg/kg",713 ng/mL
same,half-life,"[6]; mouse, in vivo, ip, 50 mg/kg",1.3 h
same,microtubule polymerization,[3],mild microtubule polymerization effects
same,abnormal cilia morphology in the olfactory bulb,[7]; MeCP2 deficit,reversed
same,Ib4+ inflammatory cells in the GI tract,[7]; RTT models,reduced
same,a-tubulin acetylation in brain and elsewhere in the body,[7]; RTT models,normalized
same,efficacy when starting treatment after the onset of symptoms,[1]; IP delivery,failed to show efficacy
same,"Rett cumulative severity score, head-to-head comparison",[1],effective improvement
same,efficacy when starting treatment after the onset of symptoms,[1]; oral dosing,improved efficacy
same,release profile after oral dosing,[8],more sustained release of vorinostat at lower concentrations
same,reduction in average inner dish swimming compared to vehicle dosed KDs,"[9]; RTT KD tadpoles, 5 μM",42%
same,swimming pattern of treated RTT tadpoles,[9]; RTT tadpoles,patterns suggestive of darting and seizure are still observed
same,"efficacy by Rett cumulative severity scoring system, 50 vs 100 mg/kg",[10],better efficacy at 50 mg/kg
same,"Y-maze performance, brain and GI tubulin acetylation normalization, inflammatory cytokine levels, colon goblet cells inflammation",[10]; vorinostat vs trofinetide 75 mg/kg,outperformed trofinetide
same,reversal of RTT symptoms in RTT tadpole screen,[2],stronger reversal of RTT symptoms at nontoxic concentrations
same,"α- and β-tubulins, acetyl CoA synthetase 3, ribosome protein S6 as targets",[4],"significant, direct targets"
"O=C(O)CCC(=O)Nc1ccccc1 [RVL002, succinanilic acid]","response across exploratory behavior, swimming velocity and number of tadpoles in a school",[11],did not respond
same,muscle RNAseq differences in the cluster of HDAC inhibitors (BioNav),"[5]; mouse femoral muscle, 50 mg/kg p.o.",acts through non-HDAC-mediated pathways
same,Reactome pathways of genes unique/responding to RVL002,"[5]; wild-type mice, brain and muscle (Tables 2, 3)",MeCP2-pathway-mediated effect
same,tolerability and viability of RTT tadpoles,[12],well tolerated and improves the viability of RTT tadpoles
same,RVL002/vorinostat Ratio of T1/2,"[6]; mouse, in vivo",2.6
same,RVL002/vorinostat Ratio of Tmax,"[6]; mouse, in vivo",0.8
same,"biodistribution, crossing the blood brain barrier","[6]; mouse, in vivo, 50 mg/kg",better biodistribution including in crossing the blood brain barrier
same,AUC(0-inf),"[6]; mouse, in vivo, ip, 50 mg/kg",11600 ng·h/mL
same,AUC(0-t),"[6]; mouse, in vivo, ip, 50 mg/kg",11800 ng·h/mL
same,Cmax,"[6]; mouse, in vivo, ip, 50 mg/kg",12300 ng/mL
same,Tmax,"[6]; mouse, in vivo, ip, 50 mg/kg",0.3 h
same,half-life,"[6]; mouse, in vivo, ip, 50 mg/kg",3.3 h
same,gene expression changes of vorinostat replicated by RVL002,[13]; RTT animals,92.5%
same,genes with significant expression changes due to vorinostat treatment accounted for by RVL002 treatment,"[13]; wild type animals, fold change >2, p<0.05",100%
same,Rett cumulative severity score,[14],delayed the progression in severity of behavioral and physiological phenotypes; also recorded: significantly reduce the severity of the Rett syndrome phenotypes
same,optomotor assay,[15],delayed the progression in severity of behavioral and physiological phenotypes
same,HDACi activity,[16],lacks HDACi activity
same,reduction in inner dish circular swimming compared to vehicle dosed KDs,"[9]; RTT KD tadpoles, 50 μM",78%
same,epoch-based entropy of swimming behavior,"[9]; RTT tadpoles, 15-second epoch",rescue the behavior of RTT tadpoles
same,swimming pattern of treated RTT tadpoles,[9]; RTT tadpoles,adopt more circular motion and stop less frequently
